Where a name gives a salt, the structure may show the parent alone.

In the test the target is GST-Syk Full Protein (human) (Homo sapiens, UniProt P43405). In words: Syk kinase inhibition test (HTRF method). It is filed as biochemical. Particulars: Tables 1-x, compounds A; read-out: sykHTRF ave IC50. The procedure:
Syk Kinase Inhibition Test (HTRF Method)
After the compounds were serially diluted with dimethylsulfoxide (DMSO), 10 μL of those 10-fold diluted with kinase buffer (20 mM HEPES pH 7.0, 10 mM MgCl2, 50 mM NaCl, 1 mM 2-ME, 0.05% BSA) was added to opti-plate HTRF-96 (Packard) (final DMSO concentration: 2%). 20 μL of a substrate solution (kinase buffer as mentioned above containing Syk Specific-Peptide Substrate Biot-EDPDYEWPSA-NH2 (Peptide Laboratory) 625 nM, 250 μM ATP (SIGMA) was added (final substrate concentration 250 nM, 100 μM ATP), and further 20 μL of an enzyme solution (kinase buffer as mentioned above containing GST-Syk Full Protein (human) 16 nM) (final concentration 6.4 nM) was added and the mixture was immediately stirred with a plate shaker to start enzyme reaction. After reacted at room temperature (20 to 25° C.) for 30 minutes, the enzyme reaction was terminated by adding 100 μL/well of a buffer for terminating and detecting the reaction (30 mM HEPES pH 7.0, 150 mM KF, 0.15% BSA, 0.075% Tween-20, 75 mM EDTA) containing HTRF reagent (5 μg/ml XL665-Streptavidin (CIS bio), 170 ng/ml Eu(K)-anti-PhosphoTyrosin, PT-66 (CIS bio)) (final concentration 20 mM HEPES pH 7.0, 100 mM KF, 0.1% BSA, 0.05% Tween-20, 50 mM EDTA). After allowed to stand still at room temperature for 1 hour, inhibitory effect of a compound against Syk kinase enzymatic activity was evaluated by measuring 665/620 fluorescence ratio to excitation light at 337 nm by ARVO (Wallac).
For orientation: In TR-FRET formats the signal depends on donor and acceptor labels being close together.
With `Cc1ccnc(Nc2cccc(-c3cnc(N4CCC(=C(F)C(=O)O)CC4)s3)n2)c1` [Compound A-631, fluoro-(1-{5-[6-(4-methylpyridin-2-ylamino)pyridin-2-yl]thiazol-2-yl}piperidin-4-ylidene)acetic acid], the IC50 was under 100 nM. As for `Cc1ccnc(Nc2cccc(-c3cnc(N(C)CCCCC(=O)O)s3)n2)c1` [Compound A-632, 5-(N-methyl-N-{5-[6-(4-methylpyridin-2-ylamino)pyridin-2-yl]thiazol-2-yl}amino)pentanoic acid], the concentration for half-maximal inhibition (IC50) is under 100 nM. As for `Cc1ccnc(Nc2cccc(-c3cnc(N4CCC(CC(=O)NS(C)(=O)=O)CC4)s3)n2)c1` [Compound A-633, N-[2-(1-{5-[6-(4-methylpyridin-2-ylamino)pyridin-2-yl]thiazol-2-yl}piperidin-4-yl)acetyl]methanesulfonamide], the IC50 was under 100 nM. In the case of `Cc1ccnc(Nc2cccc(-c3cnc(N(C)CCCC(=O)O)s3)n2)c1` [Compound A-634, 4-(N-methyl-N-{5-[6-(4-methylpyridin-2-ylamino)pyridin-2-yl]thiazol-2-yl}amino)butyric acid dihydrochloride], the IC50 was under 100 nM. As to `O=C(O)CC1CCN(c2ncc(-c3cccc(Nc4cc(C(F)(F)F)ccn4)n3)s2)CC1` [Compound A-635, (1-{5-[6-(4-trifluoromethylpyridin-2-ylamino)pyridin-2-yl]thiazol-2-yl}piperidin-4-yl)acetic acid dihydrochloride], the IC50 is under 100 nM. Consider `O=C(O)CC1CCN(c2ncc(-c3cccc(Nc4ccc(Cl)cn4)n3)s2)CC1` [Compound A-636, (1-{5-[6-(5-chloropyridin-2-ylamino)pyridin-2-yl]thiazol-2-yl}piperidin-4-yl)acetic acid dihydrochloride], for which the IC50 was under 100 nM. `COc1ccnc(Nc2cccc(-c3cnc(N4CCC(CC(=O)O)CC4)s3)n2)c1` [Compound A-637, (1-{5-[6-(4-methoxypyridin-2-ylamino)pyridin-2-yl]thiazol-2-yl}piperidin-4-yl)acetic acid dihydrochloride]: the half-maximal inhibitory concentration (IC50) was under 100 nM. Consider `CN(c1ncc(-c2cccc(Nc3cc(C(F)(F)F)ccn3)n2)s1)[C@H]1CC[C@H](C(=O)O)CC1` [Compound A-638, trans-4-(N-methyl-N-{5-[6-(4-trifluoromethylpyridin-2-ylamino)pyridin-2-yl]thiazol-2-yl}amino)cyclohexanecarboxylic acid], for which the half-inhibitory concentration (IC50) was under 100 nM. The value for `Cc1ccnc(Nc2cccc(-c3cnc(N(C)c4ccc(CCC(=O)O)cc4)s3)n2)c1` [Compound A-639, 3-[4-(N-methyl-N-{5-[6-(4-methylpyridin-2-ylamino)pyridin-2-yl]thiazol-2-yl}amino)phenyl]propionic acid] was under 100 nM. Turning to `Cc1ccnc(Nc2cccc(-c3cnc(N(C)CCC/C=C/C(=O)O)s3)n2)c1` [Compound A-640, (E)-6-(N-methyl-N-{5-[6-(4-methylpyridin-2-ylamino)pyridin-2-yl]thiazol-2-yl}amino)hex-2-enoic acid dihydrochloride], the half-inhibitory concentration (IC50) was under 100 nM. Consider `Cc1ccnc(Nc2cccc(-c3cnc(N4CCc5cc(CC(=O)O)ccc5C4)s3)n2)c1` [Compound A-641, (2-{5-[6-(4-methylpyridin-2-ylamino)pyridin-2-yl]thiazol-2-yl}-1,2,3,4-tetrahydroisoquinolin-6-yl)acetic acid], for which the IC50 is under 100 nM. Turning to `Cc1ccnc(Nc2cccc(-c3cnc(N4CCc5c(CCC(=O)O)cccc5C4)s3)n2)c1` [Compound A-642, 3-(2-{5-[6-(4-methylpyridin-2-ylamino)pyridin-2-yl]thiazol-2-yl}-1,2,3,4-tetrahydroisoquinolin-5-yl)propionic acid], the 50% inhibitory concentration (IC50) was under 100 nM. On to `Cc1ccnc(Nc2cccc(-c3cnc(N(CCCCC(=O)O)C(C)C)s3)n2)c1` [Compound A-643, 5-(N-isopropyl-N-{5-[6-(4-methylpyridin-2-ylamino)pyridin-2-yl]thiazol-2-yl}amino)pentanoic acid], for which the IC50 is under 100 nM. The value for `Cc1ccnc(Nc2cccc(-c3cnc(NCCCCC(=O)O)s3)n2)c1` [Compound A-644, 5-{5-[6-(4-methylpyridin-2-ylamino)pyridin-2-yl]thiazol-2-ylamino}pentanoic acid] was under 100 nM. The value for `Cc1ccnc(Nc2cccc(-c3cnc(N(C)CCCCCC(=O)O)s3)n2)c1` [Compound A-645, 6-(N-methyl-N-{5-[6-(4-methylpyridin-2-ylamino)pyridin-2-yl]thiazol-2-yl}amino)hexanoic acid dihydrochloride] was under 100 nM.

Regarding `Cc1ccnc(Nc2cccc(-c3cnc(N4CCC[C@H]4C(=O)NS(C)(=O)=O)s3)n2)c1` [Compound A-646], the half-inhibitory concentration (IC50) fell in the range of 100 to 1000 nM.

In the case of `Cc1ccnc(Nc2cccc(-c3cnc(N(C)CCC/C=C(\F)C(=O)O)s3)n2)c1` [Compound A-647, (Z)-2-fluoro-6-(N-methyl-N-{5-[6-(4-methylpyridin-2-ylamino)pyridin-2-yl]thiazol-2-yl}amino)hex-2-enoic acid dihydrochloride], the IC50 was under 100 nM. Turning to `O=C(O)CC1CC2CCC(C1)N2c1ncc(-c2cccc(Nc3cc(C(F)(F)F)ccn3)n2)s1` (stereo not shown) [Compound A-648, (8-{5-[6-(4-trifluoromethylpyridin-2-ylamino)pyridin-2-yl]thiazol-2-yl}-8-azabicyclo[3.2.1]oct-3-yl)acetic acid], the IC50 was under 100 nM. The value for `Cc1ccnc(Nc2cccc(-c3cnc(N4C5CCC4CC(CC(=O)O)C5)s3)n2)c1` (stereo not shown) [Compound A-649, (8-{5-[6-(4-methylpyridin-2-ylamino)pyridin-2-yl]thiazol-2-yl}-8-azabicyclo[3.2.1]oct-3-yl)acetic acid] was under 100 nM; that for `N#Cc1ccnc(Nc2cccc(-c3cnc(N4CCC(CC(=O)O)CC4)s3)n2)c1` [Compound A-650, (1-{5-[6-(4-cyanopyridin-2-ylamino)pyridin-2-yl]thiazol-2-yl}piperidin-4-yl)acetic acid dihydrochloride] was under 100 nM; that for `CN(Cc1ccc(CC(=O)O)cc1)c1ncc(-c2cccc(Nc3cc(C(F)(F)F)ccn3)n2)s1` [Compound A-651, {4-[(N-methyl-N-{5-[6-(4-trifluoromethylpyridin-2-ylamino)pyridin-2-yl]thiazol-2-yl}amino)methyl]phenyl}acetic acid] was under 100 nM. The value for `Cc1ccnc(Nc2cccc(-c3cnc(N4CCC(CC(=O)O)CC4)s3)n2)c1` [Compound A-653, (1-{5-[6-(4-methylpyridin-2-ylamino)pyridin-2-yl]thiazol-2-yl}piperidin-4-yl)acetic acid] was under 100 nM; that for `CN(c1ncc(-c2cccc(Nc3cc(C(F)(F)F)ccn3)n2)s1)C(C)(C)c1ccc(C(=O)O)cc1` [Compound A-654, 4-[1-methyl-1-(N-methyl-N-{5-[6-(4-trifluoromethylpyridin-2-ylamino)pyridin-2-yl]thiazol-2-yl}amino)ethyl]benzoic acid] was under 100 nM.

As to `CC(=CC(=O)O)CCCN(C)c1ncc(-c2cccc(Nc3cc(C(F)(F)F)ccn3)n2)s1` [Compound A-655, 3-methyl-6-(N-methyl-N-{5-[6-(4-trifluoromethylpyridin-2-ylamino)pyridin-2-yl]thiazol-2-yl}amino)hex-2-enoic acid dihydrochloride], the IC50 was under 100 nM.

With `CC(=CC(=O)O)CCCN(C)c1ncc(-c2cccc(Nc3cc(C)ccn3)n2)s1` [Compound A-656, 3-methyl-6-(N-methyl-N-{5-[6-(4-methylpyridin-2-ylamino)pyridin-2-yl]thiazol-2-yl}amino)hex-2-enoic acid dihydrochloride], the IC50 was under 100 nM.

As for `CN(CCC/C=C/C(=O)O)c1ncc(-c2cccc(Nc3cc(C(F)(F)F)ccn3)n2)s1` [Compound A-657, (E)-6-(N-methyl-N-{5-[6-(4-trifluoromethylpyridin-2-ylamino)pyridin-2-yl]thiazol-2-yl}amino)hex-2-enoic acid dihydrochloride], the IC50 is under 100 nM. As for `Cc1ccnc(Nc2cccc(-c3cnc(N4CCC[C@H]4C(=O)NCCO)s3)n2)c1` [Compound A-658, N-(2-hydroxyethyl)-(S)-1-{5-[6-(4-methylpyridin-2-ylamino)pyridin-2-yl]thiazol-2-yl}pyrrolidine-2-carboxamide], the figure is under 100 nM; as for `Cc1ccnc(Nc2cccc(-c3cnc(N4CCC[C@H]4C(=O)N4CCC(O)CC4)s3)n2)c1` [Compound A-659], 100 to 1000 nM; as for `Cc1ccnc(Nc2cccc(-c3cnc(N4CCC[C@H]4C(=O)NCC(C)(C)C)s3)n2)c1` [Compound A-660], 100 to 1000 nM.

On to `Cc1ccnc(Nc2cccc(-c3cnc(N4CCC(NC(=O)C5CCOCC5)CC4)s3)n2)c1` [Compound A-661], for which the IC50 is 100 to 1000 nM. The value for `Cc1ccnc(Nc2cccc(-c3cnc(N4CCC(NC(=O)C5CCC(O)CC5)CC4)s3)n2)c1` (stereo not shown) [Compound A-662] was 100 to 1000 nM.

Broadly, the IC50 is the midpoint of a concentration-inhibition curve.

For the origin of these results see US7803801B2, “Aminopyridine compounds having Syk inhibitory activity” (Japan Tobacco, Inc., priority 2005, dated 2010).
